Reference: patent publication US20170190705A1, “Compositions and Methods for Inhibiting BMP” (THE BRIGHAM AND WOMAN'S HOSPITAL, INC., priority 2014, published 2017)

Legend:
Assay type in all cases: biochemical
AMP-A1B1G1 = AMP-A1B1G1 (Homo sapiens, UniProt Q13131); experiment: Kinome profiling AMP-A1B1G1; details: read-out: Inhibitory activity AMP-A1B1G1; for inhibition at 0.1 µM: 100 nM
Procedure: (§1) . The kinome-wide selectivity was determined following the methods previously reported by Mohedas et al., ACS Chem Biol 2013, 8, 1291-1302 and Sanvitale et al., PLoS One 2013, 8, e62721.

PAK6 = PAK6 (Homo sapiens, UniProt Q9NQU5); experiment: Kinome profiling PAK6; details: read-out: Inhibitory activity PAK6; for inhibition at 0.1 µM: 100 nM
Chain of PAK6 (Q9NQU5 whole entry): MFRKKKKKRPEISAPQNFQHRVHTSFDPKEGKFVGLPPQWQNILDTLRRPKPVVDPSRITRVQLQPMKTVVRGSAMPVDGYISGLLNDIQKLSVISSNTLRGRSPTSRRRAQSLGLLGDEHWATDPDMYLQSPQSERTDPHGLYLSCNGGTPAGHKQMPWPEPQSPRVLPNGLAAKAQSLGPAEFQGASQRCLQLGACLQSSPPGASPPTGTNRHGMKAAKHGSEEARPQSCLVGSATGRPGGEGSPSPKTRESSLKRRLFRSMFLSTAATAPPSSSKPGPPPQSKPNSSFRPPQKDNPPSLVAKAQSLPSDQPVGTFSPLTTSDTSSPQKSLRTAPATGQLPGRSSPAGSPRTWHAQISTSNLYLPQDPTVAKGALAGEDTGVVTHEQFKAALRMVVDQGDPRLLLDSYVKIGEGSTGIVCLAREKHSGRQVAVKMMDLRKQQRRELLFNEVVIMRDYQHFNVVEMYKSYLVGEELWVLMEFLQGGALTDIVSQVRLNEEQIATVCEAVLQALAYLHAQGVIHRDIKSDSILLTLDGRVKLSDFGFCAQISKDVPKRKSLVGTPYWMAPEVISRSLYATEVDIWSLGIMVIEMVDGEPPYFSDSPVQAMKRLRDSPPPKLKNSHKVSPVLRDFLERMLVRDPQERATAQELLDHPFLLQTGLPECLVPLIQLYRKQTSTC
Procedure: as §1

DYRK1A = DYRK1A (Homo sapiens, UniProt Q13627); experiment: Kinome profiling DYRK1A; details: read-out: Inhibitory activity DYRK1A; for inhibition at 0.1 µM: 100 nM
Procedure: as §1

MST1 = target: T1, MST1 (Homo sapiens, UniProt Q13043); experiment: Kinome profiling MST1; details: read-out: Inhibitory activity MST1; for inhibition at 0.1 µM: 100 nM
T1 sequence (Q13043 1-487): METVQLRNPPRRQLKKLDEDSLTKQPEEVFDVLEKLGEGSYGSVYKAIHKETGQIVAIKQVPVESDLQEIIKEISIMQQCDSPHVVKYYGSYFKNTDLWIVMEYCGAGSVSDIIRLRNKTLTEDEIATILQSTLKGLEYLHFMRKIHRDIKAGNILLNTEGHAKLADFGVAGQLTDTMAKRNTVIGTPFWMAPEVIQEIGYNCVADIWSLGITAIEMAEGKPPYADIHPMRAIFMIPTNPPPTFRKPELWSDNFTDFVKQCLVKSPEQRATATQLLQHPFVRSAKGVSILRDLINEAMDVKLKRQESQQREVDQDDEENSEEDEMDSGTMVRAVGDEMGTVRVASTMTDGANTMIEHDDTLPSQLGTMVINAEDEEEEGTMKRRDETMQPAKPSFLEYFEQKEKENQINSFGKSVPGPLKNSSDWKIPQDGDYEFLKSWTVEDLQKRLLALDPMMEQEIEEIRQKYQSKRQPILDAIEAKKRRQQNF
Procedure: as §1

AKT3 = AKT3 (Homo sapiens, UniProt Q9Y243); experiment: Kinome profiling AKT3; details: read-out: Inhibitory activity AKT3; for inhibition at 0.1 µM: 100 nM
Procedure: as §1

CHEK2 = CHEK2 (Homo sapiens, UniProt O96017); experiment: Kinome profiling CHEK2; details: read-out: Inhibitory activity CHEK2; for inhibition at 0.1 µM: 100 nM
Chain of CHEK2 (O96017 whole entry): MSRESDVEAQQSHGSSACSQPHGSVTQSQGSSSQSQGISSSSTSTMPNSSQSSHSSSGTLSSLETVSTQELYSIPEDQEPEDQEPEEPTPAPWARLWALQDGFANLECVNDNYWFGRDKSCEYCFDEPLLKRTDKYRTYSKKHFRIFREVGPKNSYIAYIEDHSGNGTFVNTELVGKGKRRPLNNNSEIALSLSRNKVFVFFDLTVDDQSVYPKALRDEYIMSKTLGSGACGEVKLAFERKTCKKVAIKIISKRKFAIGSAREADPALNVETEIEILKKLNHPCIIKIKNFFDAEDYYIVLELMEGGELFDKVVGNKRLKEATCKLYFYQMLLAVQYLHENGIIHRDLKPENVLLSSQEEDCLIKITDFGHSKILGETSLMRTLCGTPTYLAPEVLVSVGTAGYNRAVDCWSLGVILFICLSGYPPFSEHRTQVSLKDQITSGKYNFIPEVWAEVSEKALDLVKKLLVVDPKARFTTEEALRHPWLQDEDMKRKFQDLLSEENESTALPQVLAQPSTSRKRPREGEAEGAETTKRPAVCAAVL
Procedure: as §1

PAR-1Bα = PAR-1Bα (Homo sapiens, UniProt Q7KZI7); experiment: Kinome profiling PAR-1Bα; details: read-out: Inhibitory activity PAR-1Bα; for inhibition at 0.1 µM: 100 nM
Procedure: as §1

P38α = P38α (Homo sapiens, UniProt Q16539); experiment: Kinome profiling P38α; details: read-out: Inhibitory activity P38α; for inhibition at 0.1 µM: 100 nM
Procedure: as §1

BRSK2 = target: T2, BRSK2 (Homo sapiens, UniProt Q8IWQ3); experiment: Kinome profiling BRSK2; details: read-out: Inhibitory activity BRSK2; for inhibition at 0.1 µM: 100 nM
T2 sequence (Q8IWQ3 1-736): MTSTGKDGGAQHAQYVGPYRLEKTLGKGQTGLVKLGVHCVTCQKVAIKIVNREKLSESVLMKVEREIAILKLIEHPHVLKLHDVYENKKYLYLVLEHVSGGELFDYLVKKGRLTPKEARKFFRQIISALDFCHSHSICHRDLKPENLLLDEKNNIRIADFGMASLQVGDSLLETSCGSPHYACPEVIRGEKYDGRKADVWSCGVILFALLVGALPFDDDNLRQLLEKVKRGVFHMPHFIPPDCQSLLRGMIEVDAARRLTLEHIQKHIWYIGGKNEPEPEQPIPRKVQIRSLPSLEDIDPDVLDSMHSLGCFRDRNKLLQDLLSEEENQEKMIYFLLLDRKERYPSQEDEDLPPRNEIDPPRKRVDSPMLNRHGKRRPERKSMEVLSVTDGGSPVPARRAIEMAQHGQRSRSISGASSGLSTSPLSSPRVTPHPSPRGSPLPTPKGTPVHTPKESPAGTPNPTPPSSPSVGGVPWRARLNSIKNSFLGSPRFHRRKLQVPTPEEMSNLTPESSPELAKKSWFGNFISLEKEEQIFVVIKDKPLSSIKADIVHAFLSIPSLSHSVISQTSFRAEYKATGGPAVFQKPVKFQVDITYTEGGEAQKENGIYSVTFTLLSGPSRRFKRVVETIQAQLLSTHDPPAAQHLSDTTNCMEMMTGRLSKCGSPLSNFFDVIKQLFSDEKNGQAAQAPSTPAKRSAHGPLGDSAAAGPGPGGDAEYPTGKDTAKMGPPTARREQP
Procedure: as §1

MRCK-α = MRCK-α (Homo sapiens, UniProt Q5VT25); experiment: Kinome profiling MRCK-α; details: read-out: Inhibitory activity MRCK-α; for inhibition at 0.1 µM: 100 nM
Procedure: as §1

LRRK2-G2019S = LRRK2-G2019S (Homo sapiens, UniProt Q5S007, G2019S); experiment: Kinome profiling LRRK2-G2019S; details: read-out: Inhibitory activity LRRK2-G2019S; for inhibition at 0.1 µM: 100 nM
Chain of LRRK2-G2019S (Q5S007 whole entry G2019S): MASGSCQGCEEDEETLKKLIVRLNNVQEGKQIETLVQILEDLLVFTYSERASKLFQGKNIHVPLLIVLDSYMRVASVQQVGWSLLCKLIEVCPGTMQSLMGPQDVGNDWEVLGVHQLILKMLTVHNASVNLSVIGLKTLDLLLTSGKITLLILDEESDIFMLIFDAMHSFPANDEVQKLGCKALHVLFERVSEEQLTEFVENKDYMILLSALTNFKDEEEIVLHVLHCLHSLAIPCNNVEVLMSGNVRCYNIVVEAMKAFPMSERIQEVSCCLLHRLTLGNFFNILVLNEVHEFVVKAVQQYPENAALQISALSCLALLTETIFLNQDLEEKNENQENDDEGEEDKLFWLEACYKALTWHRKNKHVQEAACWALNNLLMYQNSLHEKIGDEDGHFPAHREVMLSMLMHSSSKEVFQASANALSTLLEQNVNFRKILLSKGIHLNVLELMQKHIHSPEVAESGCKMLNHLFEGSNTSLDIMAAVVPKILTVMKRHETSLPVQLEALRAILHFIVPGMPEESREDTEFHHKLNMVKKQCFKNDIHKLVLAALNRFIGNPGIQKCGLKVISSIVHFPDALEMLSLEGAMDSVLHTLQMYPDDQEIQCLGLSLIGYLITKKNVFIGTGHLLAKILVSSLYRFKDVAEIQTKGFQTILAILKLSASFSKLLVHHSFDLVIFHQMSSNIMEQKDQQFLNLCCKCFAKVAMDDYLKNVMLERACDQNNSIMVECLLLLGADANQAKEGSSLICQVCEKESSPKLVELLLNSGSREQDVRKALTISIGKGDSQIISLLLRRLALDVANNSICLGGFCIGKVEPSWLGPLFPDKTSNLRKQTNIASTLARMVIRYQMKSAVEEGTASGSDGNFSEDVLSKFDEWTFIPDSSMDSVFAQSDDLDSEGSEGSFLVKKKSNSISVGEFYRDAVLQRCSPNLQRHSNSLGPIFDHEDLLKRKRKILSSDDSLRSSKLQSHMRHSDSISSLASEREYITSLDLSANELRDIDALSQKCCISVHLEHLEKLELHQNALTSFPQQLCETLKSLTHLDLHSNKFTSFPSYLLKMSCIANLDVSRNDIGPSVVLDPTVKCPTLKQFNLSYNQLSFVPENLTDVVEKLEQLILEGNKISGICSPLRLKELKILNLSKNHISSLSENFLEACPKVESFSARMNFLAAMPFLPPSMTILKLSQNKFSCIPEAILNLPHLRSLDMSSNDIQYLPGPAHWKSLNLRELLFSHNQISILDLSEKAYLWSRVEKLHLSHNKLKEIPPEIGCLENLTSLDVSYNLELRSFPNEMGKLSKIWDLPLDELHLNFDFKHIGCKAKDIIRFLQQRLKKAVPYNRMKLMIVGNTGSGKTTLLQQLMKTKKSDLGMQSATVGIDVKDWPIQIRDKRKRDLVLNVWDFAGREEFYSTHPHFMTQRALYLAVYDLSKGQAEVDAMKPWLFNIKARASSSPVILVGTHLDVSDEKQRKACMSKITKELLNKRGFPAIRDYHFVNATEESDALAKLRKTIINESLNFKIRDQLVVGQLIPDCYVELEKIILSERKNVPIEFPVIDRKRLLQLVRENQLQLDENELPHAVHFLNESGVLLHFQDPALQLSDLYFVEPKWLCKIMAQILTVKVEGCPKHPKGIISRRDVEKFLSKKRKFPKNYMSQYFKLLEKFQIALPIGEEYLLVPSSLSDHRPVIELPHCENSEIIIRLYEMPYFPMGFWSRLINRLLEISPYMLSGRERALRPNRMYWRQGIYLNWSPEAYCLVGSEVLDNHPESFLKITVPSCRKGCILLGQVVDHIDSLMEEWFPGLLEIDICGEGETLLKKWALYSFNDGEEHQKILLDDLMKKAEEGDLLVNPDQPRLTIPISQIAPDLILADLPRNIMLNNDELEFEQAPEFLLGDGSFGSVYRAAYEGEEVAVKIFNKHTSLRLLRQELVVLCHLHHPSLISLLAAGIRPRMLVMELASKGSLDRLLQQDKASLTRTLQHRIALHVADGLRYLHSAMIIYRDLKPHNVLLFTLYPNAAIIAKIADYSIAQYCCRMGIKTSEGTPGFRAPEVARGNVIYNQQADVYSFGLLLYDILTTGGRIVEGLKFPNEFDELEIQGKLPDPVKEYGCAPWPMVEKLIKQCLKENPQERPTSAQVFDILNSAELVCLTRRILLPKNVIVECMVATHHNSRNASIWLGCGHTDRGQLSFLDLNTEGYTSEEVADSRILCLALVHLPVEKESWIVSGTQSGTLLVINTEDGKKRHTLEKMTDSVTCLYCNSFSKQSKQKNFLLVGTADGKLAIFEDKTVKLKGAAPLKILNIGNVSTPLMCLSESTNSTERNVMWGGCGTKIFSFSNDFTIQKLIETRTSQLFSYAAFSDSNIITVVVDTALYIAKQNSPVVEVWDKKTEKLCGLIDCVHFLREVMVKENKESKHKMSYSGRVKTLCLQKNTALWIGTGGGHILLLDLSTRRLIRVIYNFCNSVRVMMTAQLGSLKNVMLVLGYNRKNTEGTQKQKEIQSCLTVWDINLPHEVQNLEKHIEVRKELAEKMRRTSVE
Procedure: as §1

ERB-B2 = ERB-B2 (Homo sapiens, UniProt P04626); experiment: Kinome profiling ERB-B2; details: read-out: Inhibitory activity ERB-B2; for inhibition at 0.1 µM: 100 nM
Procedure: as §1

Chain of AMP-A1B1G1 (Q13131 whole entry): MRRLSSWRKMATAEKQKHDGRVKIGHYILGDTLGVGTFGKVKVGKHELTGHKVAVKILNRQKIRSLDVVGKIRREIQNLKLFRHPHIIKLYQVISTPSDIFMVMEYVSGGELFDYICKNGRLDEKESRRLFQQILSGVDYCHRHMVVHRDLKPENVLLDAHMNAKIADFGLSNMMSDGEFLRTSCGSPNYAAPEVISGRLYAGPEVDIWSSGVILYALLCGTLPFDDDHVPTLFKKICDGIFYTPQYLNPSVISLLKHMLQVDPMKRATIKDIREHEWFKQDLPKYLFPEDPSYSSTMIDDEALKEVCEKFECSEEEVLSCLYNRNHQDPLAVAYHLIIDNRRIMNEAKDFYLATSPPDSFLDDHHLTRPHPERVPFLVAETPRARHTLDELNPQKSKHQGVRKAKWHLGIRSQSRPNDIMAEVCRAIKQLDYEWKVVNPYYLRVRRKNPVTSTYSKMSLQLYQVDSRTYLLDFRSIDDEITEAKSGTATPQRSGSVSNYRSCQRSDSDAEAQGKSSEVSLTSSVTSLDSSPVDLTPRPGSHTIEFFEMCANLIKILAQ
Chain of AMP-A1B1G1 (Q9Y478 whole entry partner): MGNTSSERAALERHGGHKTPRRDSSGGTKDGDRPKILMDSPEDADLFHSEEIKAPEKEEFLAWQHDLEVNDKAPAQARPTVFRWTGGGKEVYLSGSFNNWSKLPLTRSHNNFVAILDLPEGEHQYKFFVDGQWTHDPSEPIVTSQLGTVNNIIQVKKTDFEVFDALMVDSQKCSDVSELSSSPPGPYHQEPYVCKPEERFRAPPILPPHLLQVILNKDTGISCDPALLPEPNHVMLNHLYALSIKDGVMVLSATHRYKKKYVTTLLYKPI
Chain of AMP-A1B1G1 (P54619 whole entry partner): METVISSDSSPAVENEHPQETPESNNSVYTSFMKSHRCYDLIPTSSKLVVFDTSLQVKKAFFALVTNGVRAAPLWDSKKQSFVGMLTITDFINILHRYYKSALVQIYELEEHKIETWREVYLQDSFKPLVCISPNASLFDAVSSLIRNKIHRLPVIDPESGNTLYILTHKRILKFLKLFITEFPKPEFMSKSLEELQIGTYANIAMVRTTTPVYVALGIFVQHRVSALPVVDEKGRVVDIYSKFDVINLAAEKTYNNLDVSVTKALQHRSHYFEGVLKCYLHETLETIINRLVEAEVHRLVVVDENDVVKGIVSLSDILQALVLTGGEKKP

COc1cc(-c2cc(-c3ccc(N4CCNCC4)cc3)cnc2C)cc(OC)c1OC [Compound 10, 1-(4-(6-methyl-5-(3,4,5-trimethoxyphenyl)pyridin-3-yl)phenyl)piperazine]
inhibition at 0.1 µM (AMP-A1B1G1): 5% | inhibition at 1 µM (AMP-A1B1G1): 1% | inhibition at 0.1 µM (PAK6): 1% | inhibition at 1 µM (PAK6): 5% | inhibition at 0.1 µM (DYRK1A): 3% | inhibition at 1 µM (DYRK1A): 5% | inhibition at 0.1 µM (MST1): 3% | inhibition at 1 µM (MST1): 3% | inhibition at 0.1 µM (AKT3): 1% | inhibition at 1 µM (AKT3): 1% | inhibition at 0.1 µM (CHEK2): 1% | inhibition at 1 µM (CHEK2): 8% | inhibition at 0.1 µM (PAR-1Bα): 2% | inhibition at 1 µM (PAR-1Bα): 4% | inhibition at 0.1 µM (P38α): -2% | inhibition at 1 µM (P38α): 1% | inhibition at 0.1 µM (BRSK2): 2% | inhibition at 1 µM (BRSK2): 1% | inhibition at 0.1 µM (MRCK-α): -1% | inhibition at 1 µM (MRCK-α): 2% | inhibition at 0.1 µM (LRRK2-G2019S): 4% | inhibition at 1 µM (LRRK2-G2019S): 11% | inhibition at 0.1 µM (ERB-B2): 0% | inhibition at 1 µM (ERB-B2): 3%

COc1cc(-c2cc(-c3ccc(N4CCNCC4)cc3)cnc2N)cc(OC)c1OC [Compound 15, 5-(4-(piperazin-1-yl)phenyl)-3-(3,4,5-trimethoxyphenyl)pyridin-2-amine]
inhibition at 0.1 µM (AMP-A1B1G1): 0% | inhibition at 1 µM (AMP-A1B1G1): 5% | inhibition at 0.1 µM (PAK6): 5% | inhibition at 1 µM (PAK6): 3% | inhibition at 0.1 µM (DYRK1A): 2% | inhibition at 1 µM (DYRK1A): 5% | inhibition at 0.1 µM (MST1): 3% | inhibition at 1 µM (MST1): 10% | inhibition at 0.1 µM (AKT3): 0% | inhibition at 1 µM (AKT3): 2% | inhibition at 0.1 µM (CHEK2): 2% | inhibition at 1 µM (CHEK2): 7% | inhibition at 0.1 µM (PAR-1Bα): 1% | inhibition at 1 µM (PAR-1Bα): 19% | inhibition at 0.1 µM (P38α): 4% | inhibition at 1 µM (P38α): 9% | inhibition at 0.1 µM (BRSK2): 1% | inhibition at 1 µM (BRSK2): 2% | inhibition at 0.1 µM (MRCK-α): 6% | inhibition at 1 µM (MRCK-α): 50% | inhibition at 0.1 µM (LRRK2-G2019S): 16% | inhibition at 1 µM (LRRK2-G2019S): 57% | inhibition at 0.1 µM (ERB-B2): 0% | inhibition at 1 µM (ERB-B2): 5%
